Laboratory results taken from US20260083704A1, “LXR MODULATORS WITH BICYCLIC CORE MOIETY FOR TREATING DYSLIPIDEMIAS” (OrsoBio, Inc., priority 2022, published 2026).
pEC50: −log10 of the molar value.

How the values were obtained:
[1] = target: T1, GST-LXRβ ligand-binding domain (Homo sapiens, UniProt P55055); test: TR-FRETβ activity assay (NCoA3 coactivator peptide recruitment); format: biochemical; conditions: 1 μM 24(S)-25-epoxycholesterol prestimulation
T1 construct: amino acids 156-461; NP009052; made in house; host or cells: E. coli
T1 sequence (P55055 156-460 limits assumed): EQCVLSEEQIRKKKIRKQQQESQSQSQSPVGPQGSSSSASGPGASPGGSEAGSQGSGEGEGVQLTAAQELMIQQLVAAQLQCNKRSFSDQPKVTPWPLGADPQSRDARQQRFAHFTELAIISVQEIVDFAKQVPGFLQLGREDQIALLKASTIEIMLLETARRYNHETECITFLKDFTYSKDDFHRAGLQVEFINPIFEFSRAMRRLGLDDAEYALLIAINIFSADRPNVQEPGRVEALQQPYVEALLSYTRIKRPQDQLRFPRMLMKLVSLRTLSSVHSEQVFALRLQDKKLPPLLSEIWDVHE
Outline: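 E. coli-expressed GST-LXRβ LBD (aa 156-461, 76 nM) with biotinylated NCoA3 peptide (400 nM) in Tris/HCl pH 6.8 containing 1 μM 24(S)-25-epoxycholesterol agonist. Compounds tested at 50 μM down to 0.002 μM in triplicate. TR-FRET (Tb cryptate/XL665, ex 340, em 615/665 nm) read after 1 h at 4° C.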

[2] = target: T2, LXRβ (Homo sapiens, UniProt P55055); test: LXR Gal4 reporter transient transfection assay (mammalian two-hybrid, HEK293), LXRβ; format: cell-based; set-up: LXRβ (amino acids 156-461); expressed in transfected cells; host or cells: HEK293; conditions: full length (FL) LXRβ, HEK293; read-out: FL-M2H Gal4β
T2 sequence (P55055 1-460): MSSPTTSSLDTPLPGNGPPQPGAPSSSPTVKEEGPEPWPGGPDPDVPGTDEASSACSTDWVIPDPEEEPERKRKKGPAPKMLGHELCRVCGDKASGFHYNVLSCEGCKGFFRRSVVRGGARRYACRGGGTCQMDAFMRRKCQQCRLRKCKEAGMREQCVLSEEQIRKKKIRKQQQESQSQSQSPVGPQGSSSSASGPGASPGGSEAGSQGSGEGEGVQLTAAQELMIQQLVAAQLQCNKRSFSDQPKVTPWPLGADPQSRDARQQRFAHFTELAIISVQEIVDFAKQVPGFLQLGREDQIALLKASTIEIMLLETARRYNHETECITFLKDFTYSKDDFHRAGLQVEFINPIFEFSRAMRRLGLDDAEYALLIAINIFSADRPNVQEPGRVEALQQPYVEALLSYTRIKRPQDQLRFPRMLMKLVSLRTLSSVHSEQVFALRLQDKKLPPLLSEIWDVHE
Outline: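 HEK293 cells transiently co-transfected with full-length or LBD LXRα/LXRβ fused to NFkB activation domain, GAL4-DBD-fused SRC1 or NCoR cofactor domain, GAL4-responsive firefly luciferase reporter and Renilla control. Compound added 4 h post-transfection (≤0.2% DMSO), incubated 16 h; firefly and Renilla luminescence read sequentially.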

COc1cccnc1-c1c(-c2cccc(-c3ccc(C(=O)O)cc3Cl)c2)n(S(=O)(=O)c2ccc(C(F)F)cc2)c2ccc(F)cc12 [11/40]
pEC50 [1]: 6.00 to 7.00 | pEC50 [2]: > 7.00

O=C(O)c1ccc(-c2cccc(-c3c(-c4ncccc4OC(F)F)c4cc(F)ccc4n3S(=O)(=O)c3ccc(C(F)F)cc3)c2)c(Cl)c1 [11/41]
pEC50 [1]: > 7.00 | pEC50 [2]: > 7.00

N#CC1=C(c2c(-c3cccc(-c4ccc(C(=O)O)cc4Cl)c3)n(S(=O)(=O)c3ccc(C(F)F)cc3)c3ccc(F)cc23)CCCC1 [11/42]
pEC50 [1]: < 5.00 | pEC50 [2]: 6.00 to 7.00

O=C(O)c1ccc(-c2cccc(-c3c(-c4cccc5nncn45)c4cc(F)ccc4n3S(=O)(=O)c3ccc(C(F)F)cc3)c2)c(Cl)c1 [11/43]
pEC50 [1]: 6.00 to 7.00 | pEC50 [2]: 6.00 to 7.00

O=C(O)c1ccc(-c2cccc(-c3c(-c4cccc5c4OCO5)c4cc(F)ccc4n3S(=O)(=O)c3ccc(C(F)F)cc3)c2)c(Cl)c1 [11/44]
pEC50 [1]: > 7.00 | pEC50 [2]: > 7.00

COc1cc(-c2c(-c3cccc(-c4ccc(C(=O)O)cc4Cl)c3)n(S(=O)(=O)c3ccc(C(F)F)cc3)c3ccc(F)cc23)c2c(C#N)cnn2c1 [11/46]
pEC50 [1]: > 7.00 | pEC50 [2]: > 7.00

Cn1cccc(-c2c(-c3cccc(-c4ccc(C(=O)O)cc4Cl)c3)n(S(=O)(=O)c3ccc(C(F)F)cc3)c3ccc(F)cc23)c1=O [11/47]
pEC50 [1]: 6.00 to 7.00 | pEC50 [2]: 6.00 to 7.00

N#Cc1cccc(C#N)c1-c1c(-c2cccc(-c3ccc(C(=O)O)c(F)c3F)c2)n(S(=O)(=O)c2ccc(C(F)F)cc2)c2ccc(F)cc12 [11/52]
pEC50 [1]: > 7.00 | pEC50 [2]: > 7.00

N#Cc1cccc(C#N)c1-c1c(-c2cccc(-c3c(F)c(F)c(C(=O)O)c(F)c3F)c2)n(S(=O)(=O)c2ccc(C(F)F)cc2)c2ccc(F)cc12 [11/54]
pEC50 [1]: > 7.00 | pEC50 [2]: > 7.00

N#Cc1cccc(C#N)c1-c1c(-c2cccc(-c3ccc(C(=O)O)cc3Cl)c2)n(S(=O)(=O)c2ccc(Cl)cc2)c2ccc(F)cc12 [11/55]
pEC50 [1]: > 7.00 | pEC50 [2]: > 7.00

N#Cc1cccc(C#N)c1-c1c(-c2cccc(-c3ccc(C(=O)O)cc3Cl)c2)n(S(=O)(=O)c2ccc(C(F)F)cc2)c2ccccc12 [11/56]
pEC50 [1]: > 7.00 | pEC50 [2]: > 7.00

N#Cc1sccc1-c1c(-c2cccc(-c3ccc(C(=O)O)cc3Cl)c2)n(S(=O)(=O)c2ccc(C(F)F)nc2)c2ccc(F)cc12 [11/57]
pEC50 [1]: > 7.00 | pEC50 [2]: > 7.00

N#Cc1cccc(C#N)c1-c1c(-c2cccc(C34CCC(C(=O)O)(CC3)CC4)c2)n(S(=O)(=O)c2ccc(C(F)F)cc2)c2ccc(F)cc12 [11/58]
pEC50 [1]: > 7.00 | pEC50 [2]: > 7.00

CC(O)(C(=O)O)c1ccc(-c2cccc(-c3c(-c4c(C#N)cccc4C#N)c4cc(F)ccc4n3S(=O)(=O)c3ccc(C(F)F)cc3)c2)cc1 (stereo not drawn) [11/59]
pEC50 [1]: > 7.00 | pEC50 [2]: > 7.00

N#Cc1cccc(C#N)c1-c1c(-c2cccc([C@H]3CC[C@@H](C(=O)O)CC3)c2)n(S(=O)(=O)c2ccc(C(F)F)cc2)c2ccc(F)cc12 [11/61]
pEC50 [1]: 6.00 to 7.00 | pEC50 [2]: > 7.00

N#Cc1cccc(C#N)c1-c1c(-c2cccc(-c3ccc(C(=O)O)cc3F)c2)n(S(=O)(=O)C2CCC(C(F)(F)F)CC2)c2ccc(F)cc12 (stereo not drawn) [11/64]
pEC50 [1]: 6.00 to 7.00 | pEC50 [2]: > 7.00

N#Cc1cccc(C#N)c1-c1c(-c2cccc(-c3ccc(C(=O)O)cc3Cl)c2)n(S(=O)(=O)C2CC3CCC2C3)c2ccc(F)cc12 (stereo not drawn) [11/66]
pEC50 [1]: 6.00 to 7.00 | pEC50 [2]: > 7.00

N#Cc1cncc(C#N)c1-c1c(-c2cccc(-c3ccc(C(=O)O)cc3Cl)c2)n(S(=O)(=O)c2ccc(C(F)F)cc2)c2ccc(F)cc12 [11/67]
pEC50 [1]: 6.00 to 7.00 | pEC50 [2]: > 7.00

Cn1ccc(-c2c(-c3cccc(-c4ccc(C(=O)O)cc4Cl)c3)n(S(=O)(=O)c3ccc(C(F)F)cc3)c3ccc(F)cc23)c1C#N [11/68]
pEC50 [1]: > 7.00 | pEC50 [2]: > 7.00

O=C(O)C1CC1c1cccc(-c2c(-c3c(Cl)cccc3Cl)c3cc(F)ccc3n2S(=O)(=O)c2ccc(C(F)F)cc2)c1 (stereo not drawn) [11/69]
pEC50 [1]: > 7.00 | pEC50 [2]: > 7.00

Cc1ccc(S(=O)(=O)n2c(-c3cccc(-c4ccc(C(=O)O)c(C)c4Cl)c3)c(-c3ccsc3C#N)c3cc(F)ccc32)cc1 [12/1]
pEC50 [1]: 6.00 to 7.00 | pEC50 [2]: > 7.00

Cc1ccc(S(=O)(=O)n2c(-c3cccc(-c4cc(F)c(C(=O)O)cc4Cl)c3)c(-c3ccsc3C#N)c3cc(F)ccc32)cc1 [12/2]
pEC50 [1]: 6.00 to 7.00 | pEC50 [2]: > 7.00

Cc1ccc(S(=O)(=O)n2c(-c3cccc(-c4ccc(C(=O)O)c(F)c4Cl)c3)c(-c3ccsc3C#N)c3cc(F)ccc32)cc1 [12/3]
pEC50 [1]: 6.00 to 7.00 | pEC50 [2]: > 7.00

COc1cc(-c2cccc(-c3c(-c4ccsc4C#N)c4cc(F)ccc4n3S(=O)(=O)c3ccc(C)cc3)c2)c(Cl)cc1C(=O)O [12/4]
pEC50 [1]: 6.00 to 7.00 | pEC50 [2]: > 7.00

COc1c(C(=O)O)ccc(-c2cccc(-c3c(-c4ccsc4C#N)c4cc(F)ccc4n3S(=O)(=O)c3ccc(C)cc3)c2)c1Cl [12/5]
pEC50 [1]: > 7.00 | pEC50 [2]: > 7.00

Cc1ccc(S(=O)(=O)n2c(-c3cccc(-c4cc(C(=O)O)n[nH]4)c3)c(-c3ccsc3C#N)c3cc(F)ccc32)cc1 [12/6]
pEC50 [1]: 5.00 to 6.00 | pEC50 [2]: 5.00 to 6.00

Cc1ccc(S(=O)(=O)n2c(-c3cccc(-c4cc(C(=O)O)nn4C)c3)c(-c3ccsc3C#N)c3cc(F)ccc32)cc1 [12/7]
pEC50 [1]: 6.00 to 7.00 | pEC50 [2]: 6.00 to 7.00

Cc1ccc(S(=O)(=O)n2c(-c3cccc(-c4cc(C(=O)O)nn4C(C)C)c3)c(-c3ccsc3C#N)c3cc(F)ccc32)cc1 [12/8]
pEC50 [1]: 5.00 to 6.00 | pEC50 [2]: 6.00 to 7.00

Cc1ccc(S(=O)(=O)n2c(-c3cccc(-c4ccc5c(C(=O)O)n[nH]c5c4)c3)c(-c3ccsc3C#N)c3cc(F)ccc32)cc1 [12/9]
pEC50 [1]: 6.00 to 7.00 | pEC50 [2]: 6.00 to 7.00

N#Cc1cccc(C#N)c1-c1c(-c2cccc(-c3ccc(S(=O)(=O)O)cc3Cl)c2)n(S(=O)(=O)c2ccc(C(F)F)cc2)c2ccc(F)cc12 [12/10]
pEC50 [1]: > 7.00 | pEC50 [2]: > 7.00

N#Cc1sccc1-c1c(-c2cccc(-c3ccc(C(=O)O)cc3)c2)n(S(=O)(=O)c2ccc3c(c2)CCC3)c2ccc(F)cc12 [23/3]
pEC50 [1]: 6.00 to 7.00 | pEC50 [2]: > 7.00

CC(C)(O)c1ccc(S(=O)(=O)n2c(-c3cccc(-c4ccc(C(=O)O)cc4Cl)c3)c(-c3ccccc3C#N)c3cc(F)ccc32)cc1 [30/16]
pEC50 [1]: 5.00 to 6.00 | pEC50 [2]: 6.00 to 7.00

COC(=O)C(C)(C)N(C)C(=O)C1CN(c2cccc(-c3c(-c4ccsc4C#N)c4cc(F)ccc4n3S(=O)(=O)c3ccc(C)cc3)c2)C1 [32/2]
pEC50 [1]: 6.00 to 7.00 | pEC50 [2]: 6.00 to 7.00

Cc1ccc(S(=O)(=O)n2c(-c3cccc(-c4ccc(C(=O)NS(C)(=O)=O)cc4Cl)c3)c(-c3ccsc3C#N)c3cc(F)ccc32)cc1 [32/4]
pEC50 [1]: > 7.00 | pEC50 [2]: > 7.00

Cc1ccc(S(=O)(=O)n2c(-c3cccc(-c4ccc(C(=O)O)nc4C)c3)c(-c3ccsc3C#N)c3cc(F)ccc32)cc1 [36/1]
pEC50 [1]: 6.00 to 7.00 | pEC50 [2]: > 7.00

Cc1ccc(S(=O)(=O)n2c(-c3cccc(-c4cccc(S(C)(=O)=Nc5nnn[nH]5)c4)c3)c(-c3ccsc3C#N)c3cc(F)ccc32)cc1 (stereo not drawn) [37/1]
pEC50 [1]: 6.00 to 7.00 | pEC50 [2]: 6.00 to 7.00

O=C(O)c1ccc(-c2cccc(-c3c(-c4ccccc4)c4cc(F)ccc4n3S(=O)(=O)c3ccc(C(F)F)cc3)c2)c(Cl)c1 [C11/39]
pEC50 [1]: 6.00 to 7.00 | pEC50 [2]: > 7.00

Cc1ccc(S(=O)(=O)n2c(-c3cccc(-c4ccc(C(C(=O)O)N(C)C)cc4Cl)c3)c(-c3ccsc3C#N)c3cc(F)ccc32)cc1 (stereo not drawn) [Compound 3]
pEC50 [1]: > 7.00 | pEC50 [2]: > 7.00

Cc1ccc(S(=O)(=O)n2c(-c3cccc(C4CC4C(=O)O)c3)c(-c3ccsc3C#N)c3ncccc32)cc1 (stereo not drawn) [Compound 4]
pEC50 [1]: 5.00 to 6.00 | pEC50 [2]: 6.00 to 7.00
